Experimental data taken from patent US10766940B2, “Brain penetrant amylin receptor based peptides for Alzheimer's disease” (The Governors of the University of Alberta, priority 2016, dated 2020).
One block for each compound: values may come before it. Positions of bridges follow the written chain, without caps; N, C: chain ends. Non-standard residues stand in square brackets, D forms with d. Residues, ends and D or L forms follow the SMILES beside them. No end group written: not given here. Cy5.5 = near-infrared dye, attached as Cy5.5-NHS ester; βAla = NCCC(=O)O

How the values were obtained:
[1] = In vivo and ex vivo NIRF brain imaging after ip injection, wild-type mice; conditions: for ability to penetrate the blood brain barrier: single ip administration, wild-type mice, NIR fluorescence
Method: For in vivo imaging experiments, 6-12 month-old TgCRND8, age-matched wild-type littermate, and heterozygous CTR knockdown mice (50% CTR expression level compared to wild type control mice and presumably with 50% AMY receptor expression level) were used (n=5 in each group). The animals were anesthetized with ketamine ip injection. The fur was shaved from the head and dorsal side of the body to avoid laser scattering caused by hair. […] Wild type mice injected with 200 μl saline were used as a background.
Images were acquired with a Kodak IS2000MM Image station (GE Healthcare Systems/ART Inc.), excitation filter 625/20 band pass, emission filter 700 W band pass, light source was 150 W quartz halogen lamp set to 100 (max). Images were captured with a CCD camera set to F stop=0, FOV=150, FP=0. Exposure time was 2 min per image for NIRF image and 1 s for visible image. To evaluate for fluorescence concentration, the region of interest was drawn around the brain region and analyzed using the Kodak ID 3.6 software and the mean fluorescence intensity was recorded.

[2] = In vivo competition with unlabeled cAC253, ex vivo brain fluorescence; set-up: species or system mouse; conditions: 40 μg Cy5.5 cAC253 + 5-fold excess (200 μg) unlabeled cAC253 ip, 2 hr
Method: Additionally, a competition in vivo experiment was also carried out. […] Brains were then extracted and scanned ex-vivo for fluorescence concentration. For ex vivo histological study, brains were excised and embedded in OCT, then sliced into 20-μm slices, co-stained with DAPI in mounting medium.

[3] = In vivo pharmacokinetics and bio-distribution of cAC253
Method: There were 3 mice in each dose group. After 2 hours the mice were sacrificed to collect their brains which were imaged in a Kodak imager. […] The heart, liver, lung, spleen, intestine, stomach, kidney and brain were excised after perfusion with PBS, and kept in dry ice before Kodak imaging. Fluorescence was quantified, and analyzed as previously.

[4] = after ip injection, 2 h, brain homogenate fluorescence vs standard
[5] = Peptide stability in human serum; type: in vitro ADME; conditions: 37° C.
Method: For the serum stability experiments, human serum or liver homogenate (250 μL) were added to DMEM medium (650 μL) in a 1.5 mL Eppendorf tube to mimic a biological system. The temperature was equilibrated at 37±1° C. for 30 minutes before adding 100 μL of the peptide stock solution (1 mM solution in 10% DMSO in sterile water). An aliquot of reaction solution (100 μL) was removed from the sample at different time points 0, 3, 5, 10, 20, and 30 minutes added to pure methanol (300 μL) for precipitation of the serum proteins present in the human serum proteins by centrifugation (10,000 rpm, 5 minutes). The clear supernatant was analyzed by reversed phase HPLC, and the appropriate fractions were collected for identification using MALDI-TOF. Proteolysis kinetics of the peptides was analyzed by following the decrease in the concentration of the intact peptide as a function of time. The t1/2 half-lives of peptides were calculated.

[6] = Lipophilicity, shake flask 1-octanol/water partition; type: physicochemical
Method: Peptides hydrophobicity was determined using the shake flask method and 1-octanol/water partition coefficient (log Po/w) was determined. […] Peptide concentration (area) in both phases (1-octanol and water) were analyzed by RP-HPLC. The final log Po/w value was calculated by dividing the concentration (C) of the peptide in the two phases as presented by the area under the peak (partition coefficients=C1-octanol/Cwater).

AMY1 = target: T1, AMY1 (Homo sapiens, UniProt O60894+P30988); test: Peptide array-cell binding assay, AMY1 transfected cells; conditions: membrane screening AMY1-3 subtypes
T1 construct: expressed in transfected cells
T1 sequence (P30988 25-474): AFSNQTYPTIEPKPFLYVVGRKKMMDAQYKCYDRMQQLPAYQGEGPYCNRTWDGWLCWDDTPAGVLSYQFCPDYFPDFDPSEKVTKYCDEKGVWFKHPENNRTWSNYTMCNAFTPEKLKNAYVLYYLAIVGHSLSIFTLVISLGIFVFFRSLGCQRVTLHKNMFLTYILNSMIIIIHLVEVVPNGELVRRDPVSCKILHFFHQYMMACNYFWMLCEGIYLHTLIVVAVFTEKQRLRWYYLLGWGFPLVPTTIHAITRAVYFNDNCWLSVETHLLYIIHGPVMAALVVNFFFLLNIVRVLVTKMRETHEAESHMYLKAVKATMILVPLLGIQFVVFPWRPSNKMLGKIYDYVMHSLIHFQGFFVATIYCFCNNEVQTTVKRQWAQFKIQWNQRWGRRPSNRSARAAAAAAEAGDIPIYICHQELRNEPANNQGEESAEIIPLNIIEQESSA
T1 sequence (O60894 27-148 partner): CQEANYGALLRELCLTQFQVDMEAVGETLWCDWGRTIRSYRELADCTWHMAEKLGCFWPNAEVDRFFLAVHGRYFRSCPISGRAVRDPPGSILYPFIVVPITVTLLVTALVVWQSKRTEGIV

- ability to penetrate the blood brain barrier [1]: could not on its own cross the BBB
Compound: C[N+]1=C(C=CC=CC=C2N(CCCCCC(=O)ON3C(=O)CCC3=O)c3ccc4ccccc4c3C2(C)C)C(C)(C)c2c1ccc1ccccc21.[Cl-] [Cy5 dye, Cyanine5.5 NHS ester dye, reference compound]

- clearance from the brain at 6 h ([1]; mouse, in vivo, ip): rapid clearance from the brain
Compound: CC[C@H](C)[C@H](NC(=O)[C@H](C)NC(=O)[C@@H](N)Cc1c[nH]cn1)C(=O)N[C@@H](Cc1ccc(O)cc1)C(=O)N1CCC[C@H]1C(=O)N[C@@H](CCCNC(=N)N)C(=O)N[C@@H](Cc1c[nH]cn1)C(N)=O [T7, HAIYPRH, reference compound]

Compound: CC(C)C[C@@H]1NC(=O)[C@H](N)CSSC[C@H](C(N)=O)NC(=O)[C@H](Cc2ccc(O)cc2)NC(=O)[C@H]([C@@H](C)O)NC(=O)[C@H](CC(N)=O)NC(=O)[C@H](CO)NC(=O)CNC(=O)[C@H]([C@@H](C)O)NC(=O)[C@H](CC(N)=O)NC(=O)[C@H]([C@@H](C)O)NC(=O)[C@H](CCCNC(=N)N)NC(=O)[C@@H]2CCCN2C(=O)[C@H](Cc2ccc(O)cc2)NC(=O)[C@H]([C@@H](C)O)NC(=O)[C@H](CCC(N)=O)NC(=O)[C@H](CC(C)C)NC(=O)[C@H](CCCNC(=N)N)NC(=O)[C@H](Cc2c[nH]cn2)NC(=O)[C@H](CC(C)C)NC(=O)[C@H](CCC(=O)O)NC(=O)[C@H](CCC(N)=O)NC(=O)[C@H](CO)NC(=O)[C@H](CC(C)C)NC(=O)[C@H](CCCNC(=N)N)NC(=O)CNC1=O [cAC253] (H-[dC]LGRLSQELHRLQTYPRTNTGSNTY[dC]-NH2; disulfide 1-26; N-terminus assumed)
- reduction of brain fluorescence signal by excess unlabeled cAC253 [2]: 75%
- bio-distribution in organs ([3]; 2 h after injecting 20 mg/kg): mainly observed in the eliminating organs such as kidneys, liver and in the injection sites (intestine)
- brain concentration [4]: 10 to 100 nM
- ex-vivo brain fluorescence signal relative to saline injection ([1]; 2 h post ip injection, 0.1 mmol in 200 μl saline): 2.8 fold
- further increase of brain fluorescence level at 6 h ([1]; 6 h post-ip injection, 0.01 mmol): 20%
- ability to penetrate the blood brain barrier [1]: penetrate the blood brain barrier
- stability in human serum relative to AC253 [5]: seven-fold increase
- stability in human serum relative to AC253 ([5]; listed as Cyclic-AC253): 7 times
- half-life ([5]; human, serum, RP-HPLC of intact peptide): 7 h
- logP ([6]; 1-octanol/water shake flask, read-out: log P): -1.05
- Partition coefficient ([6]; Table 2, 1-octanol/PBS shake flask): 1.22

Compound: Cy5-cAC253: cAC253 with extra β-alanine spacer, N-terminally labeled with near-infrared dye Cy5.5-NHS ester ({Cy5.5-βAla}-[dC]LGRLSQELHRLQTYPRTNTGSNTY[dC]-NH2; disulfide 1-26)
- half-life of brain fluorescence signal ([3]; mouse, in vivo, ip, 20 mg/kg): 16 h

- binding to AMY1 cells on peptide array (fluorescence) (AMY1): AMY1 specific peptide
Compound: RLQTYPRTNTGS (RLQTYPRTNTGS-NH2) [R10]
